Experimental data taken from the NIST ThermoML archive (doi:10.1016/j.tca.2014.05.028).

Experiment: xn = mol fraction of the nth substance listed
Settings: 101 kPa, Liquid; for viscosity: Falling or rolling sphere viscometry; for mass density: Vibrating tube method

CCC[N+]1(C)CCCC1.[Br-] [1-methyl-1-propylpyrrolidinium bromide] + O
Settings	mass density [kg/m3]	viscosity [mPa·s]
298.15 K, x1 = 0.0315	1060.85	1.604
298.15 K, x1 = 0.0664	1111.9	2.896
298.15 K, x1 = 0.0983	1147.67	5.311
298.15 K, x1 = 0.1376	1178.4	8.527
298.15 K, x1 = 0.1685	1196.91	12.41
298.15 K, x1 = 0.2138	1217.36	20.56
298.15 K, x1 = 0.2382	1225.96	26.01
298.15 K, x1 = 0.27	1235.84	35.47
298.15 K, x1 = 0.3143	1245.39	50.7
298.15 K, x1 = 0.3535	1251.89	69.94
298.15 K, x1 = 1	1259.96	–
303.15 K, x1 = 0.0315	1058.76	1.412
303.15 K, x1 = 0.0664	1109.17	2.5
303.15 K, x1 = 0.0983	1144.55	4.504
303.15 K, x1 = 0.1376	1175.05	7.082
303.15 K, x1 = 0.1685	1193.47	10.2
303.15 K, x1 = 0.2138	1213.89	16.41
303.15 K, x1 = 0.2382	1222.51	20.59
303.15 K, x1 = 0.27	1232.42	27.62
303.15 K, x1 = 0.3143	1242.02	39.02
303.15 K, x1 = 0.3535	1248.57	53.25
303.15 K, x1 = 1	1255.92	–
308.15 K, x1 = 0.0315	1056.5	1.216
308.15 K, x1 = 0.0664	1106.34	2.115
308.15 K, x1 = 0.0983	1141.38	3.451
308.15 K, x1 = 0.1376	1171.66	5.766
308.15 K, x1 = 0.1685	1190.01	8.237
308.15 K, x1 = 0.2138	1210.41	12.97
308.15 K, x1 = 0.2382	1219.05	16.15
308.15 K, x1 = 0.27	1228.99	21.43
308.15 K, x1 = 0.3143	1238.64	29.75
308.15 K, x1 = 0.3535	1245.24	40.25
308.15 K, x1 = 1	1251.9	–
313.15 K, x1 = 0.0315	1054.11	1.077
313.15 K, x1 = 0.0664	1103.44	1.841
313.15 K, x1 = 0.0983	1138.15	2.994
313.15 K, x1 = 0.1376	1168.23	4.851
313.15 K, x1 = 0.1685	1186.52	6.89
313.15 K, x1 = 0.2138	1206.9	10.66
313.15 K, x1 = 0.2382	1215.56	13.14
313.15 K, x1 = 0.27	1225.54	17.24
313.15 K, x1 = 0.3143	1235.25	23.61
313.15 K, x1 = 0.3535	1241.91	31.53
313.15 K, x1 = 1	1247.91	–
318.15 K, x1 = 0.0315	1051.58	0.972
318.15 K, x1 = 0.0664	1100.44	1.633
318.15 K, x1 = 0.0983	1134.88	2.652
318.15 K, x1 = 0.1376	1164.78	4.16
318.15 K, x1 = 0.1685	1183	5.833
318.15 K, x1 = 0.2138	1203.37	8.968
318.15 K, x1 = 0.2382	1212.05	10.98
318.15 K, x1 = 0.27	1222.08	14.27
318.15 K, x1 = 0.3143	1231.85	19.29
318.15 K, x1 = 0.3535	1238.59	25.42
318.15 K, x1 = 1	1243.94	–
323.15 K, x1 = 0.0315	1048.87	0.865
323.15 K, x1 = 0.0664	1097.37	1.431
323.15 K, x1 = 0.0983	1131.54	2.372
323.15 K, x1 = 0.1376	1161.28	3.542
323.15 K, x1 = 0.1685	1179.46	4.937
323.15 K, x1 = 0.2138	1199.83	7.49
323.15 K, x1 = 0.2382	1208.53	9.11
323.15 K, x1 = 0.27	1218.61	11.75
323.15 K, x1 = 0.3143	1228.44	15.69
323.15 K, x1 = 0.3535	1235.27	20.44
323.15 K, x1 = 1	1240	–
328.15 K, x1 = 0.0315	1045.65	0.771
328.15 K, x1 = 0.0664	1094.2	1.254
328.15 K, x1 = 0.0983	1128.16	2.085
328.15 K, x1 = 0.1376	1157.76	3.021
328.15 K, x1 = 0.1685	1175.88	4.183
328.15 K, x1 = 0.2138	1196.26	6.287
328.15 K, x1 = 0.2382	1205	7.586
328.15 K, x1 = 0.27	1215.12	9.732
328.15 K, x1 = 0.3143	1225.02	12.85
328.15 K, x1 = 0.3535	1231.95	16.54
328.15 K, x1 = 1	1236.08	–
333.15 K, x1 = 0.0315	1041.46	0.695
333.15 K, x1 = 0.0664	1090.9	1.112
333.15 K, x1 = 0.0983	1124.72	1.841
333.15 K, x1 = 0.1376	1154.2	2.61
333.15 K, x1 = 0.1685	1172.28	3.597
333.15 K, x1 = 0.2138	1192.68	5.348
333.15 K, x1 = 0.2382	1201.44	6.425
333.15 K, x1 = 0.27	1211.61	8.189
333.15 K, x1 = 0.3143	1221.59	10.73
333.15 K, x1 = 0.3535	1228.68	13.7
333.15 K, x1 = 1	1232.19	–
338.15 K, x1 = 0.0315	1036.23	0.64
338.15 K, x1 = 0.0664	1087.31	1.01
338.15 K, x1 = 0.0983	1121.23	1.651
338.15 K, x1 = 0.1376	1150.6	2.311
338.15 K, x1 = 0.1685	1168.66	3.174
338.15 K, x1 = 0.2138	1189.07	4.677
338.15 K, x1 = 0.2382	1197.87	5.592
338.15 K, x1 = 0.27	1208.09	7.083
338.15 K, x1 = 0.3143	1218.14	9.191
338.15 K, x1 = 0.3535	1225.35	11.65
338.15 K, x1 = 1	1228.32	–
343.15 K, x1 = 0.0315	1030.46	0.574
343.15 K, x1 = 0.0664	1083.03	0.881
343.15 K, x1 = 0.0983	1117.67	1.326
343.15 K, x1 = 0.1376	1146.98	1.931
343.15 K, x1 = 0.1685	1165.01	2.763
343.15 K, x1 = 0.2138	1185.45	4.018
343.15 K, x1 = 0.2382	1194.28	4.784
343.15 K, x1 = 0.27	1204.56	6.011
343.15 K, x1 = 0.3143	1214.68	7.777
343.15 K, x1 = 0.3535	1221.99	9.762
343.15 K, x1 = 1	1224.48	–
